We go through 23 molecules from US4672063A, “Antiallergic 5-alkyl-1-phenyl-2-piperazinoalkylpyrazolin-3-one compounds” (Kali-Chemie Pharma GmbH, priority 1984, dated 1987).

The subject of series [1] is histamine-induced anaphylactoidal reaction. Nature of the series: Inhibition of histamine-induced anaphylactoid cutaneous reaction in the rat, test substance p.o. The class given is in vivo, rat (Sprague-Dawley). The conditions noted are these: po, 40 μg histamine intradermally, read-out: ED50 inhibiting effect, histamine-induced anaphylactoidal reaction. On the procedure:
(§1) 2. Determining the inhibition of passive cutaneous anaphylaxis (PCA) and the inhibition of anaphylactoid cutaneous reactions induced by histamine and by serotonin.
(§2) The determination of the inhibition of passive cutaneous anaphylaxis and the anaphylactoid cutaneous reactions induced by histamine and by serotonin, are carried out, as set forth below, according to the method of Martin and Baggiolini (Naunyn-Schmeiedeberg's Archives of Pharmacology 316 (1981) 186-189).
(§3) For passive sensitizing against ovalbumin, male Sprague-Dawley rates (body weight 150 to 165 g) are injected intradermally on a shaved part of the back with 0.05 ml of a 1:2.5 dilution of antiovalbumin serum, rich in IgE, in physiological sodium chloride solution.
(§4) 24 hours after the sensitizing, solutions of the test substances are administered orally to the rats. For comparison, a control group receives only the solvent.
(§5) To trigger the histamine-induced and serotonin-induced anaphylactoid reactions of the skin, the animals are injected intradermally 30 minutes later on a second shaved part of the back with a solution of 40 μg histamine in 0.05 ml physiological sodium chloride solution and on a third shaved part of the back with a solution of 1 μg serotonin in 0.05 physiological sodium chloride solution.
(§6) Immediately thereafter 1.25 mg (-~8 mg/kg) ovalbumin to trigger the anaphylactic reaction, and 4 mg (-~26.4 mg/kg) of a blue dye dissolved in 0.5 ml phosphate-buffered physiological sodium chloride solution are administered i.v. to the animals.
(§7) After 30 minutes the animals are killed, the skin is removed and in the individual blue patches the quantity of dye contained therein is determined separately. According to the method of Mordelet-Danbrine et al (Therapie 29 (1974) 851-862) the dye is extracted from the individual patches in each case with 2.5 ml dimethylformamide at a temperature of 37° C. for 4 days and the quantity of dye obtained in each case in the extraction solution is determined by spectrophotometric measurement. The doses of the test substances which cause a 50% reduction in the dye concentration compared with the control group are calculated as ED50 values.

A short description of series [2]: Acute 8-day toxicity, single i.p. application to male mice (LD50). The conditions noted are these: in vivo, ip, mouse i.p., 8 days. On the procedure:
The acute 8-day toxicity is determined after a single application i.p. to male mice (body weight 18 to 22 g). The mortality is noted for 8 days. The results are calculated as LD50 values, i.e. the dose which kills 50% of the animals.

Series [3] has as its system serotonin induced anaphylactoidal reaction. The experiment in a line: Inhibition of serotonin-induced anaphylactoid cutaneous reaction in the rat, test substance p.o. In kind it is in vivo, rat (Sprague-Dawley). The conditions noted are these: po, 1 μg serotonin intradermally, read-out: ED50 inhibiting effect, serotonin induced anaphylactoidal reaction. On the procedure:
as §1, §2, §3, §4, §5, §6, §7

In series [4] the test system is passive cutaneous anaphylaxis. The experiment in a line: Inhibition of passive cutaneous anaphylaxis (PCA) in the rat, test substance p.o. The class given is in vivo, rat (Sprague-Dawley). The conditions noted are these: po, 50% reduction in dye concentration vs control, read-out: ED50 inhibiting effect, passive cutaneous anaphylaxy. On the procedure:
as §1
For the preparation of an antiovalbumin serum, rich in IgE, which is used in the test, according to the method of Lehrer et al (J. Immunol. 116, (1976) 178-182) and Pauwels et al (Ann. Immunol. 230C., (1979), 49-58), Sprague-Dawley rats are sensitized by i.p. injection of 1 mg ovalbumin and 1 ml Bordetella pertussis suspension (vaxicoq, Merieux 3×10^10 organisms/ml). After 20 days the animals are given an injection of 10 mg ovalbumin in the same way, but without any additive. After a further 4 days, blood is removed from the animals and the blood is centrifuged. The antiserum thus obtained is stored at -20° C. and adjusted according to the method of Goose et al (Immunology 16 (1968) 749-760).
as §2, §3, §4, §6, §7

For series [5], the system named is peritonal mast cells of rats. Nature of the series: In vitro inhibition of anaphylactically caused histamine release from peritonal mast cells of rats. In kind it is cell-based, rat (Sprague-Dawley). The conditions noted are these: Rattus norvegicus, Mast cell; ovalbumin trigger, 1 minute preincubation at 37° C.; read-out: EC50 in vitro inhibiting effect with respect to anaphylactically caused histamine release from mast cells of the rat. The procedure: 3. Determining the inhibiting effect in vitro on the release of histamine, caused anaphylactically, from peritonal mast cells of rats.
In order to obtain the peritonal mast cells, Sprague-Dawley rats are killed by inhalation of ether and immediately after cessation of breathing has occurred, 15 ml of a cold solution of 1 mg/ml human serum albumin in phosphate-buffered sodium chloride solution are injected into the abdominal cavity. The peritonal fluid is then removed and the mast cells are separated therefrom by centrifuging and are suspended in phosphate-buffered sodium chloride solution, whereafter the suspension is adjusted to a mast cell concentration of 5×10^5 per ml.
The mast cell suspension, divided up into samples each of 100 μl, is introduced into test-tubes and each sample, for passive sensitizing, is mixed with 100 μl of a 1:10 dilution of IgE-rich antiovalbumin serum in physiological sodium chloride solution (prepared according to the method described above) and is incubated for 30 minutes at a temperature of 37° C. (water bath). For the removal of unbonded IgE, the mast cells are then washed with 2 ml phosphate-buffered sodium chloride solution, centrifuged, and the supernatant fluid is discarded. Then the mast cells are incubated for 1 minute at 37° C. with 200 μl of a solution of the test substance in phosphate-buffered sodium chloride solution. A control group is only incubated with the same quantity of phosphate-buffered sodium chloride solution which is free of test substance.
After an incubation period of 3 minutes at 37° C., the reaction is stopped by rapid cooling in an ice bath. Then centrifuging takes place, the supernatant fluid is decanted and the histamine content therein is determined directly, without further extraction, spectrofluorimetrically according to the method of Shore (J. Pharmac. Exp. Ther. 127 (1959) 182-186).
For the extraction of the residual histamine still contained in the mast cells of the undecanted material, the latter is mixed with 2 ml phosphate-buffered sodium chloride solution and the suspension is heated in a boiling water bath. Then centrifuging takes place, the supernatant fluid is decanted and therein the residual histamine extracted from the mast cells is determined spectrofluorimetrically.
For each sample, the quantity of the released histamine is calculated as percentage proportion of the overall quantity of histamine (=total of released histamine and residual histamine retained in the mast cells).
The EC50 values are calculated to be those molar concentrations of the test substances in the respective test solutions which produce a 50% inhibition of the histamine release compared to the control group.

Structures are written as SMILES.

As for `Cc1ccnc(N2CCN(CCCn3c(=O)cc(C)n3-c3ccc([N+](=O)[O-])cc3)CC2)c1` [Example 2, 5-methyl-1-(4-nitrophenyl)-2-{3-[4-(4-methyl-pyrid-2-yl)-piperazin-1-yl]-propyl}-pyrazolin-3-one], the ED50 in series [1] stood at 1.75 mg/kg; in series [3], 2.7 mg/kg; in series [4], 1.9 mg/kg. This molecule yielded an LD50 at 192 h in series [2] of 90 mg/kg.
`Cc1ccnc(N2CCN(CCCCn3c(=O)cc(C)n3-c3ccccc3)CC2)c1` [Example 4, 5-methyl-1-phenyl-2-{4-[4-(4-methyl-pyrid-2-yl)-piperazin-1-yl]-butyl}-pyrazolin-3-one]: the ED50 was determined as 7.98 mg/kg in series [1], 5.9 mg/kg in series [3] and 3.9 mg/kg in series [4]. This molecule showed an LD50 at 192 h in series [2] of 130 mg/kg.
Turning to `Cc1ccnc(N2CCN(CCCn3c(=O)cc(C)n3-c3ccc(O)cc3)CC2)c1` [Example 7, 5-methyl-1-(4-hydroxyphenyl)-2-{3-[4-(4-methyl-pyrid-2-yl)-piperazin-1-yl]-propyl}-pyrazolin-3-one], the ED50 was found to be 7.9 mg/kg in series [1], 13 mg/kg in series [3] and 6.6 mg/kg in series [4]. Also, the LD50 at 192 h in series [2] was determined as 178 mg/kg.
As for `Cc1cc(=O)n(CCCN2CCN(c3ccccc3)CC2)n1-c1ccccc1` [Example 11], the results for the ED50 in series [1], in series [3] and in series [4] were 10.1 mg/kg, 10.2 mg/kg and 4.65 mg/kg, respectively. In series [2], this molecule had an LD50 at 192 h of 108 mg/kg.
Taken in the same sequence, the figures for `CCCc1cc(=O)n(CCCN2CCN(c3cc(C)ccn3)CC2)n1-c1ccccc1` [Example 13] were 5.48 mg/kg, 1.87 mg/kg, 2.94 mg/kg and 96 mg/kg.
`Cc1ccnc(N2CCN(CCCn3c(=O)cc(C4CCCCC4)n3-c3ccccc3)CC2)c1` [Example 15]: the ED50 came to 4.4 mg/kg in series [1], 1.7 mg/kg in series [3] and 1.9 mg/kg in series [4]. The same molecule had an LD50 at 192 h in series [2] of 90 mg/kg. Besides, in series [5], the concentration giving a half-maximal response (EC50) worked out at 14 µM.
On to `COC(=O)c1ccccc1-n1c(C)cc(=O)n1CCCN1CCN(c2cc(C)ccn2)CC1` [Example 17], for which the ED50 in series [1] amounted to 12.6 mg/kg; in series [3], 10.8 mg/kg; in series [4] it was 5 mg/kg. In addition, the 50% lethal dose (LD50) at 192 h in series [2] is 342 mg/kg.
Turning to `Cc1ccnc(N2CCN(CCCn3c(=O)cc(C)n3-c3ccc(Cl)cc3)CC2)c1` [Example 18], the ED50 in series [1] stood at 6.6 mg/kg; in series [3], 6.2 mg/kg; in series [4], 4.7 mg/kg. The LD50 at 192 h in series [2] stood at 205 mg/kg. The EC50 in series [5] came out at 230 µM.
On to `COc1ccc(N2CCN(CCCn3c(=O)cc(C)n3-c3ccc(C)cc3Cl)CC2)cc1` [Example 20], for which the EC50 in series [5] stood at 10 µM.
With `COc1ccccc1-n1c(C)cc(=O)n1CCCN1CCN(c2cc(C)ccn2)CC1` [Example 21], the ED50 in series [1] amounted to 5.1 mg/kg; in series [3], 8.3 mg/kg; in series [4], 7.1 mg/kg. The molecule further registered a 50% lethal dose (LD50) at 192 h in series [2] of 252 mg/kg.
Regarding `CCCc1cc(=O)n(CCCN2CCN(c3ccc(F)cc3)CC2)n1-c1ccc(Cl)c(Cl)c1` [Example 22], the EC50 in series [5] was 43 µM.
Consider `CCc1cc(=O)n(CCCN2CCN(c3cc(C)ccn3)CC2)n1-c1ccc(Cl)cc1` [Example 23], for which the ED50 is 4.7 mg/kg in series [1], 5.8 mg/kg in series [3] and 7.85 mg/kg in series [4]. The molecule further gave an LD50 at 192 h in series [2] of 168 mg/kg. Further, the EC50 in series [5] came out at 140 µM.
Taken in the same sequence, the figures for `CCCCCCc1cc(=O)n(CCCN2CCN(c3cc(C)ccn3)CC2)n1-c1ccccc1` [Example 26] were 6.3 mg/kg, 7.8 mg/kg, 6.75 mg/kg, 72.5 mg/kg and 35 µM.
In the case of `CCOc1ccc(-n2c(C)cc(=O)n2CCCN2CCN(c3cc(Cl)ccc3C)CC2)cc1` [Example 30], the EC50 in series [5] was 18 µM.
Turning to `CCc1cc(=O)n(CCCN2CCN(c3cc(C)ccn3)CC2)n1-c1ccc([N+](=O)[O-])cc1` [Example 38], the values for the ED50 in series [1], in series [3] and in series [4] were 3.88 mg/kg, 5.54 mg/kg and 3.18 mg/kg, respectively. Besides, in series [2], the LD50 at 192 h was found to be 93 mg/kg.
In the case of `O=c1cc(C2CC2)n(-c2ccccc2)n1CCCN1CCN(c2ccc(F)cc2)CC1` [Example 43], the ED50 stood at 5.79 mg/kg in series [1], 3.25 mg/kg in series [3] and 2.45 mg/kg in series [4].
Consider `CC(=O)c1ccc(-n2c(C)cc(=O)n2CCCN2CCN(c3cc(C)ccn3)CC2)cc1` [Example 44], for which the ED50 was 3.15 mg/kg in series [1], 8.9 mg/kg in series [3] and 5.4 mg/kg in series [4]. In addition, the LD50 at 192 h in series [2] turned out to be 170 mg/kg.
For `Cc1cc(=O)n(CCCN2CCN(c3ccccn3)CC2)n1-c1ccccc1` [Example 45], the figures for the ED50 in series [1], in series [3] and in series [4] were 11 mg/kg, 8 mg/kg and 6.3 mg/kg, respectively. The same molecule registered an LD50 at 192 h in series [2] of 240 mg/kg.
`Cc1ccnc(N2CCN(CCCn3c(=O)cc(C)n3-c3ccc(C#N)cc3)CC2)c1` [Example 46]: the ED50 in series [1] was 2.8 mg/kg; in series [3] it was 8 mg/kg; in series [4], 6.3 mg/kg. For the same molecule, the LD50 at 192 h in series [2] is 101 mg/kg.
In the case of `COc1ccc(-n2c(C)cc(=O)n2CCCN2CCN(c3cc(C)ccn3)CC2)cc1` [Example 47], the median effective dose (ED50) in series [1] was found to be 6.8 mg/kg; in series [3] it was 6.8 mg/kg; in series [4], 5.96 mg/kg. In series [2], this molecule showed a median lethal dose (LD50) at 192 h of 190 mg/kg.
Turning to `O=c1cc(C2CCCCC2)n(-c2ccccc2)n1CCCN1CCN(c2ccc(F)cc2)CC1` [Example 49], the ED50 was found to be 10.6 mg/kg in series [1], 3.59 mg/kg in series [3] and 4.9 mg/kg in series [4]. Also, the LD50 at 192 h in series [2] was determined as 96 mg/kg. Also, the EC50 in series [5] is 57 µM.
Take `Cc1ccc(-n2c(C)cc(=O)n2CCCN2CCN(c3cc(C)ccn3)CC2)cc1` [Example 55]: the figures for the ED50 in series [1], in series [3] and in series [4] were 11.9 mg/kg, 11.8 mg/kg and 7.26 mg/kg, respectively. This molecule also displayed an LD50 at 192 h in series [2] of 135 mg/kg.
Take `COc1ccc(-n2c(C)cc(=O)n2CCCN2CCN(c3cc(C)ccn3)CC2)cc1OC` [Example 56]: the results for the ED50 in series [1], in series [3] and in series [4] were 3.85 mg/kg, 6.29 mg/kg and 5.7 mg/kg, respectively. This molecule also returned a 50% lethal dose (LD50) at 192 h in series [2] of more than 350 mg/kg.
